Experimental data taken from BindingDB's records for patent US10010539 (Merck Sharp & Dohme, 2018).

Target: T1, Orexin receptor type 2 (Homo sapiens, UniProt O43614)
T1 sequence (O43614 whole entry): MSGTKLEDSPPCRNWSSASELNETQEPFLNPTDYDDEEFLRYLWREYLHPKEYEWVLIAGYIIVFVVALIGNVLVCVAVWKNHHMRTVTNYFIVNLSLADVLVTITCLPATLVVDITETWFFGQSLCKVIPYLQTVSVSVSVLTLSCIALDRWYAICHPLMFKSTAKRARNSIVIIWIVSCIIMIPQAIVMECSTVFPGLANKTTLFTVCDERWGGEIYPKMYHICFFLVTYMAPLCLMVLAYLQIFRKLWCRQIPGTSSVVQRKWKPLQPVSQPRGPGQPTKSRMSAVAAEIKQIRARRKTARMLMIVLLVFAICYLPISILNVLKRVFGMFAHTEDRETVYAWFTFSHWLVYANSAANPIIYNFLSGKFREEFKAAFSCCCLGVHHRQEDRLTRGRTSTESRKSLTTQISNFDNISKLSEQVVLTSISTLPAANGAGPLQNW
Experiment: FLIPR Ca2+ Flux Assay
Description: For intracellular calcium measurements, Chinese hamster ovary (CHO) cells expressing the rat orexin-1 receptor or the human orexin-2 receptor, are grown in Iscove's modified DMEM containing 2 mM L-glutamine, […], 1% hypoxanthine-thymidine supplement, 100 U/ml penicillin, 100 μg/ml streptomycin and 10% heat-inactivated fetal calf serum (FCS). The cells are seeded at 20,000 cells/well into Becton-Dickinson black 384-well clear bottom sterile plates coated with poly-D-lysine. All reagents were from GIBCO-Invitrogen Corp. The seeded plates are incubated overnight at 37° C. and 5% CO2. Ala-6,12 human orexin-A as the agonist is prepared as a 1 mM stock solution in 1% bovine serum albumin (BSA) and diluted in assay buffer (HBSS containing 20 mM HEPES, 0.1% BSA and 2.5 mM probenecid, pH7.4) for use in the assay at a final concentration of 70 pM. […] Within the Fluorescent Imaging Plate Reader (FLIPR, Molecular Devices), test compounds are added to the plate in a volume of 25 μl, incubated for 5 min and finally 25 μl of agonist is added. Fluorescence is measured for each well at 1 second intervals for 5 minutes and the height of each fluorescence peak is compared to the height of the fluorescence peak induced by 70 pM Ala-6,12 orexin-A with buffer in place of antagonist.

Compound `CC(C)Oc1ncccc1C(=O)N1C[C@H](n2ncc(C(C)(C)O)n2)CC[C@H]1C` [US10010539, 15] has an IC50 of 32.6 nM.

In the case of `CCOc1ccccc1C(=O)N1C[C@H](n2ncc(C(C)(C)O)n2)CC[C@H]1C` [US10010539, 12], the IC50 is reported as 31.3 nM.
